{"source": "patent US7259185B2", "about": "(priority 2005, dated 2007)", "key": {"[1]": {"details": "pH buffer of pH between 8 and 9, room temperature", "text": "In a more preferred embodiment, pH of about 8 to 9, is provided. For example, a buffer close to a pH of about 8.3 can be used."}, "[2]": {"details": "2 mg/mL in pH 7 phosphate buffer (100 mM), RT"}, "[3]": {"details": "pH 9 carbonate buffer, after approximately 1 week at 50° C."}, "[4]": {"assay_type": "physicochemical", "details": "6 mg dose, no pepsin, after 24 hours", "method": "A 250 mL volumetric flask was used to simulate the capacity of stomach gastric volume, and a pH 1.5 HCl buffer (0.8% NaCl, 0.04% CaCl2) was used for the simulated gastric fluid (SGF)."}, "[5]": {"details": "for Color change: 50° C."}, "[6]": {"details": "buffer at pH 7, glycerin increased to 35% by volume"}, "[7]": {"details": "in vivo; cited from earlier work"}}, "note": "“And” between values parts separate entries of the source, which are not always exact repeats. Equal entries are not always repeated. “Also recorded” adds a separate entry of the source. Where two headings read alike, the source gives them in different places."}
{"smiles": "CC(=O)CC(c1ccccc1)c1c([O-])c2ccccc2oc1=O.[Na+]", "note": "(stereo not shown) [warfarin sodium, 4-hydroxy-3-(3-oxo-1-phenylbutyl)-2H-1-benzopyran-2one sodium salt]", "values": [{"measurement": "precipitation", "setting": "[1]", "value": "free of precipitation for at least one month"}, {"measurement": "Warfarin concentration", "setting": "[2]; time 0.017 hr", "value": 1.846, "unit": "mg/mL"}, {"measurement": "Warfarin concentration", "setting": "[2]; time 0.083 hr", "value": 1.819, "unit": "mg/mL"}, {"measurement": "Warfarin concentration", "setting": "[2]; time 0.167 hr", "value": 1.796, "unit": "mg/mL"}, {"measurement": "Warfarin concentration", "setting": "[2]; time 0.333 hr", "value": 1.847, "unit": "mg/mL"}, {"measurement": "Warfarin concentration", "setting": "[2]; time 0.5 hr", "value": 1.844, "unit": "mg/mL"}, {"measurement": "Warfarin concentration", "setting": "[2]; time 1 hr", "value": 1.8765, "unit": "mg/mL"}, {"measurement": "Warfarin concentration", "setting": "[2]; time 3 hr", "value": 1.858, "unit": "mg/mL"}, {"measurement": "Warfarin concentration", "setting": "[2]; time 5 hr", "value": 1.804, "unit": "mg/mL"}, {"measurement": "Warfarin concentration", "setting": "[2]; time 10 hr", "value": 1.822, "unit": "mg/mL"}, {"measurement": "Warfarin concentration", "setting": "[2]; time 13.5 hr", "value": 2.0099, "unit": "mg/mL"}, {"measurement": "Warfarin concentration", "setting": "[2]; time 17.25 hr", "value": 1.97, "unit": "mg/mL"}, {"measurement": "Warfarin concentration", "setting": "[2]; time 48 hr", "value": 1.113, "unit": "mg/mL"}, {"measurement": "Warfarin concentration", "setting": "[2]; time 192 hr, sodium salt", "value": "0.357 mg/mL and 0.362 mg/mL"}, {"measurement": "Color change", "setting": "[3]", "value": "slight yellowing"}, {"measurement": "precipitation of warfarin sodium in SGF", "setting": "[4]", "value": "precipitate out of solution"}, {"measurement": "Color change", "setting": "[5]; 1:1 mixture with ethanol, pH 8 buffer", "value": "No color change"}, {"measurement": "Color change", "setting": "[5]; 1:1 mixture with glycerin, pH 8 buffer", "value": "No color change"}, {"measurement": "% degradation of warfarin sodium", "setting": "[5]; Phosphate buffer pH 8 alone, 1 month at 50° C.", "value": 1.4, "unit": "%"}, {"measurement": "Color change", "setting": "[5]; Phosphate buffer pH 8 alone", "value": "Light yellow"}, {"measurement": "Color change", "setting": "[5]; pH 8 buffer with Liquid sugar (50% v/v), sodium salt", "value": "slight yellow color change"}, {"measurement": "% degradation of warfarin sodium", "setting": "[5]; pH 8 buffer with Liquid sugar (50% v/v), after 312 hr at 50° C.", "value": "2.4 (after 312 hr) %"}, {"measurement": "Color change", "setting": "[5]; pH 8 buffer with Mannitol (5% w/v), sodium salt", "value": "slight yellow color change; also recorded: Light yellow"}, {"measurement": "% degradation of warfarin sodium", "setting": "[5]; pH 8 buffer with Mannitol (5% w/v), after 384 hr at 50° C.", "value": "1.9 (after 384 hr) %"}, {"measurement": "% degradation of warfarin sodium", "setting": "[5]; pH 8 buffer with Saccharin (0.5% w/v), 1 month at 50° C.", "value": 3.3, "unit": "%"}, {"measurement": "Color change", "setting": "[5]; pH 8 buffer with Saccharin (0.5% w/v), sodium salt", "value": "slight yellow color change; also recorded: Light yellow"}, {"measurement": "% degradation of warfarin sodium", "setting": "[5]; pH 8 buffer with Sorbitol (50% v/v), 1 month at 50° C.", "value": 2.9, "unit": "%"}, {"measurement": "Color change", "setting": "[5]; pH 8 buffer with Sorbitol (50% v/v), sodium salt", "value": "slight yellow color change; also recorded: Light yellow"}, {"measurement": "% degradation of warfarin sodium", "setting": "[5]; pH 8 buffer with TWEEN 80 (0.5% v/v), 1 month at 50° C.", "value": 5.1, "unit": "%"}, {"measurement": "precipitation of warfarin", "setting": "[6]", "value": "prevents precipitation"}]}
{"smiles": "CC(=O)CC(c1ccccc1)c1c(O)c2ccccc2oc1=O", "note": "(racemic) [warfarin]", "values": [{"measurement": "apparent Vd", "setting": "[7]", "value": 0.13, "unit": "L/kg"}]}
